Test results from publication PMC7136958, “Targeting the pregnane X receptor using microbial metabolite mimicry” (EMBO Molecular Medicine, 2020).
Several values for one entry are separate records, joined by “and”; a condition that tells them apart may be missing. Equal entries are not always repeated.

What was measured:
[1] = test system: S. typhimurium 14038; experiment: Salmonella invasion in iPSC-derived human intestinal organoids; format: cell-based, Salmonella typhimurium; conditions: for salmonella invasion vs cytokines alone: 2, 4, 6, 12 h; for basal salmonella invasion: 10 and 25 μM; for Salmonella CFU/ml: HIO, triplicate
Protocol: FKK compounds were tested for their ability to prevent Salmonella invasion in vitro in non‐inflamed and inflamed cell cultures. Overnight cultures of S. typhimurium 14038 were diluted to OD600 0.01 and injected into with HIOs or immersed over Caco‐2 monolayers for 1 h at 37°C. The invasive ability of Salmonella was assessed using the gentamicin protection assay (Gagnon et al, 2013). Bacterial adhesion scenarios to the Caco‐2 surface were set up as described above. Non‐adhered bacteria were removed by washing twice in PBS, followed by incubation with 1 ml gentamicin (150 μg/ml in DMEM) for 1 h at 37°C to kill the adhered extracellular bacteria. Dead bacteria were removed by washing twice in PBS, followed by incubation with 500 μl 0.1% Triton X‐100 for 15 min at 37°C to lyse the HIOs and Caco‐2, and release the intracellular (invaded) bacteria. Serial fold dilutions and plating were then employed to determine CFU/ml. We normalized to total protein using Bradford assay.

[2] = test system: IL-8 mRNA in Caco-2 cells; experiment: IL-8 mRNA in Caco-2 monolayers exposed to cytokine cocktail; format: cell-based, human; design: key to IL8 mRNA: relative IL-8 mRNA level, normalized to GAPDH; conditions: for IL8 mRNA: Caco-2 cells, triplicate
Protocol: Caco‐2 cell (ATCC, Manassas, VA) passages 25–35 were maintained and expanded in culture flasks in Dulbecco's modified Eagle's medium (DMEM) with 10% FBS and 1× antibiotic–antimycotic. The cells were kept in a humidified 37°C incubator with 5% CO2. Media were changed every 2–3 days, and cells were passaged 1–2 times a week. For all experiments, Caco‐2 cells (5 × 10^4 cells/ml) were seeded into 12‐well Transwell inserts or coverslips and cultured for 3 weeks. HIOs were generated from iPSCs as described previously (Spence et al, 2011), with some modifications. The iPSC cell line IISH1i‐BM1 (WiCell, Madison, WI) was cultured on Matrigel plates to 80% confluence in mTeSR™ 1 medium (Stem Cell Technologies, Seattle, WA) and differentiated to endoderm using Definitive Endoderm Kit (Stem Cell Technologies., Seattle, WA) for 4 days with daily media changes. Endoderm was then differentiated to hindgut for 5 days with the addition of FGF‐4 (500 ng/ml; Peprotech, Rocky Hill, NJ) and Chir99021 (3 μM; Cayman, Ann Arbor, MI) in RPMI media supplemented with 2% FBS. Floating hindgut spheroids were collected on days 3–5 of hindgut differentiation and suspended in Matrigel beads for HIO differentiation. HIOs were maintained in WENRAS media (Fujii et al, 2015), which maintains proliferation in the culture. Stock HIOs were passaged weekly by removing Matrigel with Cell Recovery Solution (Corning, NY) and mechanically breaking up organoids with pipetting. HIOs were seeded into new Matrigel beads at a 1:3 split, using WENRAS with added Rock Inhibitor Y‐27632 (10 μM) and Chir99021 (3 μM; Cayman., Ann Arbor, MI) for the first 2 days of culture.
Relative mRNA levels of IL‐8 and IL‐6 were determined using quantitative real‐time PCR, with normalization to GAPDH. RNA was isolated using an RNeasy Mini Kit (Qiagen) as per the manufacturer's instructions. On column DNase (Qiagen) was used to remove any contaminating DNA. Next, cDNA was formed using iScript cDNA Synthesis Kit (Bio‐Rad) and 100 ng RNA. qRT–PCR was performed with SsoAdvanced Universal SYBR Green Kit (Bio‐Rad). The following primers were used: IL‐8 Forward: […]; IL‐8 Reverse: […]; IL‐6 Forward: […]; IL‐6 Reverse: […]; GAPDH Forward: […]; GAPDH Reverse: […]. For immunofluorescent staining of NF‐ĸB translocation to the cell nucleus, HIOs and Caco‐2 cell monolayers were fixed in 4% formaldehyde (in 1 × PBS) overnight at 4°C. The formaldehyde was removed by washing with 1 × PBS, and an antigen retrieval step was performed by incubating in 10 mM sodium citrate buffer in a vegetable steamer for 20 min. The samples were then blocked with normal donkey serum (10% in PBS with 0.3% Triton X‐100) for 1 h. Samples were incubated overnight with primary antibodies: rabbit anti‐NF‐κB p65 (D14E12 # 8242, 1:400 dilution, Cell Signaling Technology, Danvers MA), then immersed in Alexa Fluor® 555 donkey anti‐rabbit secondary antibody (A‐31572, Life Technologies) at a 1:500 dilution. Nuclei were stained with Hoechst 33342 (Life Technologies). The samples were then imaged using a Zeiss LSM880 Confocal/Multiphoton Upright Microscope, with 3‐D image rendering using Volocity. For controls, normal rabbit IgG (#2729S, Life Technologies) was used.

[3] = compound 10µm, no cytokines, 4 hr
[4] = cytokines + compound 10µm, 2 hr
[5] = cytokines + compound 10µm, 12 hr
[6] = cytokines + compound 25µm, 2 hr
[7] = compound 10µm, no cytokines, 12 hr
[8] = compound 25µm, no cytokines, 2 hr
[9] = cytokines + compound 25µm, 12 hr

Row | SMILES | salmonella invasion vs cytokines alone [1] | basal salmonella invasion [1] | Salmonella CFU/ml [1, 3] | Salmonella CFU/ml ([1]; compound 25µm, no cytokines, 6 hr) | Salmonella CFU/ml [1, 4] | Salmonella CFU/ml [1, 5] | Salmonella CFU/ml [1, 6] | Salmonella CFU/ml ([1]; cytokines + compound 25µm, 4 hr) | Salmonella CFU/ml ([1]; cytokines + compound 25µm, 6 hr) | cytokine-induced IL-8 mRNA ([2]; 25 μM) | IL8 mRNA ([2]; compound 10µm, no cytokines, 2 hr) | IL8 mRNA [2, 7] | IL8 mRNA [2, 8] | IL8 mRNA [2, 4] | IL8 mRNA [2, 5] | Salmonella CFU/ml [1, 7] | Salmonella CFU/ml [1, 9] | IL8 mRNA [2, 6] | IL8 mRNA [2, 9]
1 | C#CCC(O)(c1ccncc1)c1cc2ccccc2n1S(=O)(=O)c1ccccc1 (stereo not shown) [FKK6] | significantly reduced | no significant effect | 370 CFU/ml and 296 CFU/ml and 591 CFU/ml | 277 CFU/ml and 280 CFU/ml and 238 CFU/ml | 234 CFU/ml and 133 CFU/ml and 134 CFU/ml | 362 CFU/ml and 381 CFU/ml and 340 CFU/ml | 193 CFU/ml and 132 CFU/ml and 164 CFU/ml | 200 CFU/ml and 140 CFU/ml and 164 CFU/ml | 189 CFU/ml and 151 CFU/ml and 140 CFU/ml | significantly reduced | 2.554 and 1.974 and 1.5894 | 7.6 and 8.533 and 8.223 | 55.8723 and 30.5592 and 31.4544 | 40.0864 and 49.4401 and 49.4954 | 83.1628 and 71.3481 and 97.9287 |  |  |  | 
2 | O=C(c1ccncc1)c1cc2ccccc2n1S(=O)(=O)c1ccccc1 [FKK5, (1-(phenylsulfonyl)-1H-indol-2-yl)(pyridin-4-yl)methanone] | significantly reduced | no significant effect | 557 CFU/ml and 514 CFU/ml and 578 CFU/ml |  |  | 459 CFU/ml and 469 CFU/ml and 548 CFU/ml |  |  |  |  |  |  | 11.5603 and 13.1808 and 10.1297 | 168.69 and 99.441 and 183.41 |  | 447 CFU/ml and 508 CFU/ml and 480 CFU/ml | 474 CFU/ml and 339 CFU/ml and 439 CFU/ml | 36.3596 and 45.4346 and 54.4045 | 434.784 and 305.562 and 246.223
